Drawing on US20150291598A1 (NOVARTIS AG, priority 2012, published 2015), this text covers EC50 for 25 compounds.

A value given as a limit tells only on which side of the number the result lay.

The experiment concerns P. falciparum (NF54 or 3D7 strain). The experiment can be described thus: Assay for P. falciparum proliferation in infected human blood cells (SYBR Green). Format: cell-based, Plasmodium falciparum. Conditions: Plasmodium falciparum, Erythrocyte, 72 h, NF54 or 3D7 infected human erythrocytes, 72 hours; read-out: EC50 (nM), inhibitory efficacy in delaying P. falciparum proliferation in infected human blood cells. The procedure, abridged: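 Infected erythrocytes (NF54 or 3D7; final 2.5% hematocrit, 0.3% parasitemia) were incubated with compounds for 72 h at 37 °C in low oxygen (3% O2, 4% CO2, 93% N2).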

For `CN(C(=O)c1cn2c(-c3ccc(C4CCCN4)cc3)cnc2cn1)c1ccc(C#N)cc1` (stereo not shown) [Compound 193, N-(4-cyanophenyl)-N-methyl-3-[4-(pyrrolidin-2-yl)phenyl]imidazo[1,2-a]pyrazine-6-carboxamide], the EC50 was 8590 nM.
The figure for `CN(Cc1cccnc1)C(=O)c1cn2c(-c3ccc(C(F)(F)F)cc3)cnc2cn1` [Compound 194, N-methyl-N-(pyridin-3-ylmethyl)-3-[4-(trifluoromethyl)phenyl]imidazo[1,2-a]pyrazine-6-carboxamide] is 6950 nM; for `CN(C(=O)c1cn2c(-c3cccnc3)cnc2cn1)c1ccc(C#N)cc1` [Compound 195, N-(4-cyanophenyl)-N-methyl-3-(pyridin-3-yl)imidazo[1,2-a]pyrazine-6-carboxamide] it is greater than 10000 nM; for `CN(C(=O)c1cn2c(-c3ccc(Cl)cn3)cnc2cn1)c1ccc(C#N)cc1` [Compound 196, 3-(5-chloropyridin-2-yl)-N-(4-cyanophenyl)-N-methylimidazo[1,2-a]pyrazine-6-carboxamide] it is 9350 nM.
Regarding `CN(C(=O)c1cn2c(-c3ccc(S(=O)(=O)N(C)C)cc3)cnc2cn1)c1ccc(C#N)cc1` [Compound 197, N-(4-cyanophenyl)-3-[4-(dimethylsulfamoyl)phenyl]-N-methylimidazo[1,2-a]pyrazine-6-carboxamide], the EC50 was greater than 10000 nM.
The figure for `CC1CCN(c2nc(-c3cnc4cnc(C(=O)N(C)c5ccc(C#N)cc5)cn34)cs2)CC1` [Compound 198, N-(4-cyanophenyl)-N-methyl-3-[2-(4-methylpiperidin-1-yl)-1,3-thiazol-4-yl]imidazo[1,2-a]pyrazine-6-carboxamide] is greater than 10000 nM; for `Cc1cccc(-c2cnc3cnc(C(=O)N(C)c4ccc(C#N)cc4)cn23)c1` [Compound 199, N-(4-cyanophenyl)-N-methyl-3-(3-methylphenyl)imidazo[1,2-a]pyrazine-6-carboxamide] it is 7320 nM; for `CN(C(=O)c1cn2c(-c3cn[nH]c3)cnc2cn1)c1ccc(C#N)cc1` [Compound 200, N-(4-cyanophenyl)-N-methyl-3-(1H-pyrazol-4-yl)imidazo[1,2-a]pyrazine-6-carboxamide] it is greater than 10000 nM.
The figure for `CN1CCc2cc(-c3cnc4cnc(C(=O)N(C)c5ccc(C#N)cc5)cn34)ccc21` [Compound 201, N-(4-cyanophenyl)-N-methyl-3-(1-methyl-2,3-dihydro-1H-indol-5-yl)imidazo[1,2-a]pyrazine-6-carboxamide] is 1080 nM.
With `CN(C(=O)c1cn2c(-c3ccc4nonc4c3)cnc2cn1)c1ccc(C#N)cc1` [Compound 202, 3-(2,1,3-benzoxadiazol-5-yl)-N-(4-cyanophenyl)-N-methylimidazo[1,2-a]pyrazine-6-carboxamide], the EC50 was greater than 10000 nM.
`CN(C(=O)c1cn2c(-c3cnc4c(c3)ncn4C)cnc2cn1)c1ccc(C#N)cc1` [Compound 203, N-(4-cyanophenyl)-N-methyl-3-{3-methyl-3H-imidazo[4,5-b]pyridin-6-yl}imidazo[1,2-a]pyrazine-6-carboxamide]: the EC50 is 6490 nM.
The figure for `CN(C(=O)c1cn2c(-c3ccc4c(c3)CC(=O)N4)cnc2cn1)c1ccc(C#N)cc1` [Compound 204, N-(4-cyanophenyl)-N-methyl-3-(2-oxo-2,3-dihydro-1H-indol-5-yl)imidazo[1,2-a]pyrazine-6-carboxamide] is 6510 nM; for `CN(C(=O)c1cn2c(-c3ccc4c(cnn4C)c3)cnc2cn1)c1ccc(S(C)(=O)=O)cc1` [Compound 205, N-(4-methanesulfonylphenyl)-N-methyl-3-(1-methyl-1H-indazol-5-yl)imidazo[1,2-a]pyrazine-6-carboxamide] it is 7450 nM; for `CN(C(=O)c1cn2c(-c3ccc(C(F)(F)F)cc3)cnc2cn1)c1ccc(-n2ccc(C(F)(F)F)n2)cc1` [Compound 206, -methyl-N-{4-[3-(trifluoromethyl)-1H-pyrazol-1-yl]phenyl}-3-[4-(trifluoromethyl)phenyl]imidazo[1,2-a]pyrazine-6-carboxamide] it is greater than 9760 nM.
For the compound `CN(C)Cc1ccc(-c2cnc3cnc(C(=O)N(C)c4ccc(C#N)cc4)cn23)cc1` [Compound 207, N-(4-cyanophenyl)-3-{4-[(dimethylamino)methyl]phenyl}-N-methylimidazo[1,2-a]pyrazine-6-carboxamide], the EC50 was 4600 nM.
With `CN(C(=O)c1cn2c(-c3ccc(-c4ccnn4C)cc3)cnc2cn1)c1ccc(C#N)cc1` [Compound 208, N-(4-cyanophenyl)-N-methyl-3-[4-(1-methyl-1H-pyrazol-5-yl)phenyl]imidazo[1,2-a]pyrazine-6-carboxamide], the EC50 amounted to 724 nM.
The figure for `CN(C(=O)c1cn2c(-c3ccc(OC(F)F)cc3)cnc2cn1)c1ccc(S(C)(=O)=O)cc1` [Compound 209, 3-[4-(difluoromethoxy)phenyl]-N-(4-methanesulfonylphenyl)-N-methylimidazo[1,2-a]pyrazine-6-carboxamide] is 2700 nM.
The figure for `NC(=O)c1ccc(-c2cn3c(-c4ccc(C(N)=O)cc4)cnc3cn2)cc1` [Compound 210, 4-[3-(4-carbamoylphenyl)imidazo[1,2-a]pyrazin-6-yl]benzamide] is 1980 nM; for `CN(C(=O)c1cn2c(-c3cnc(N4CCCC4=O)cn3)cnc2cn1)c1ccc(C#N)cc1` [Compound 211, N-(4-cyanophenyl)-N-methyl-3-[5-(2-oxopyrrolidin-1-yl)pyrazin-2-yl]imidazo[1,2-a]pyrazine-6-carboxamide] it is 9390 nM.
Regarding `CN(C(=O)c1cn2c(-c3ccc(NC(=O)[C@@H](N)C4CCCCC4)cc3)cnc2cn1)c1ccc(C#N)cc1` [Compound 212, 3-{4-[(2S)-2-amino-2-cyclohexylacetamido]phenyl}-N-(4-cyanophenyl)-N-methylimidazo[1,2-a]pyrazine-6-carboxamide], the EC50 turned out to be 137 nM.
The figure for `CN(C(=O)c1cn2c(-c3ccc(OC(F)F)cc3)cnc2cn1)c1ccc(C#N)cc1` [Compound 214, N-(4-cyanophenyl)-3-[4-(difluoromethoxy)phenyl]-N-methylimidazo[1,2-a]pyrazine-6-carboxamide] is 31 nM; for `CN(C(=O)c1cn2c(-c3ccc(C(F)(F)F)cc3)cnc2cn1)c1ccc(Br)cc1` [Compound 215, N-(4-bromophenyl)-N-methyl-3-[4-(trifluoromethyl)phenyl]imidazo[1,2-a]pyrazine-6-carboxamide] it is 86 nM; for `CN(C(=O)c1cn2c(-c3ccc(N4CCCCC4)cc3)cnc2cn1)c1ccc(Cl)nc1` [Compound 216, N-(6-chloropyridin-3-yl)-N-methyl-3-[4-(piperidin-1-yl)phenyl]imidazo[1,2-a]pyrazine-6-carboxamide] it is 5710 nM.
Consider `CN(C(=O)c1cn2c(-c3ccc(C(F)(F)F)cc3)cnc2cn1)c1ccc(Cl)cc1` [Compound 217, N-(4-chlorophenyl)-N-methyl-3-[4-(trifluoromethyl)phenyl]imidazo[1,2-a]pyrazine-6-carboxamide], for which the EC50 was 36 nM.
`O=C(c1cn2c(-c3ccc(C(F)(F)F)cc3)cnc2cn1)N1CCCc2cc(Cl)ccc21` [Compound 218, 6-chloro-1-({3-[4-(trifluoromethyl)phenyl]imidazo[1,2-a]pyrazin-6-yl}carbonyl)-1,2,3,4-tetrahydroquinoline]: the EC50 amounted to 680 nM.
